From article PMC9785969, “Synthesis, Biological Evaluation, and Molecular Dynamics of Carbothioamides Derivatives as Carbonic Anhydrase II and 15-Lipoxygenase Inhibitors” (Molecules, 2022) come the findings set out here.

Data set [1] addresses bovine carbonic anhydrase II (b-CA II) (Bos taurus, UniProt P00921). The data set is described as follows: Carbonic anhydrase (b-CA II) inhibition assay, p-nitrophenyl acetate hydrolysis. Type of data set: biochemical. Conditions: for selectivity for b-CA II over 15-LOX: b-CA II vs 15-LOX. The protocol:
Carbonic anhydrase (b-CA II) inhibition activity was determined according to the previously reported protocol. IC50 values were calculated through GraphPad PRISM 5.0 Software Inc., San Diego, CA, USA.
This method is based on the spectrophotometric determination of hydrolytic product of substrate p-nitrophenyl acetate substrate. Assay volume was kept at 100 µL, comprised of 60 µL of Tris-sulfate buffer (50 mM, 0.1 mM ZnCl2 at pH 7.6), 10 µL of test compound with concentration of 50 µM and 10 µL (50 U) of b-CA II. The reaction mixture was incubated at 25 °C for 10 min and […]
Reaction was initiated by addition of 20 µL of p-nitrophenyl acetate (6mM) as substrate and incubated for further 30 min. […]
test compounds. All experiments were performed in triplicate and dose response curves were […]
(1 picture or pasted object on this page, not shown here)

The next data set has as its target T1, 15-lipoxygenase (15-LOX) (Glycine max, UniProt P08170).
T1 sequence (P08170 1-839): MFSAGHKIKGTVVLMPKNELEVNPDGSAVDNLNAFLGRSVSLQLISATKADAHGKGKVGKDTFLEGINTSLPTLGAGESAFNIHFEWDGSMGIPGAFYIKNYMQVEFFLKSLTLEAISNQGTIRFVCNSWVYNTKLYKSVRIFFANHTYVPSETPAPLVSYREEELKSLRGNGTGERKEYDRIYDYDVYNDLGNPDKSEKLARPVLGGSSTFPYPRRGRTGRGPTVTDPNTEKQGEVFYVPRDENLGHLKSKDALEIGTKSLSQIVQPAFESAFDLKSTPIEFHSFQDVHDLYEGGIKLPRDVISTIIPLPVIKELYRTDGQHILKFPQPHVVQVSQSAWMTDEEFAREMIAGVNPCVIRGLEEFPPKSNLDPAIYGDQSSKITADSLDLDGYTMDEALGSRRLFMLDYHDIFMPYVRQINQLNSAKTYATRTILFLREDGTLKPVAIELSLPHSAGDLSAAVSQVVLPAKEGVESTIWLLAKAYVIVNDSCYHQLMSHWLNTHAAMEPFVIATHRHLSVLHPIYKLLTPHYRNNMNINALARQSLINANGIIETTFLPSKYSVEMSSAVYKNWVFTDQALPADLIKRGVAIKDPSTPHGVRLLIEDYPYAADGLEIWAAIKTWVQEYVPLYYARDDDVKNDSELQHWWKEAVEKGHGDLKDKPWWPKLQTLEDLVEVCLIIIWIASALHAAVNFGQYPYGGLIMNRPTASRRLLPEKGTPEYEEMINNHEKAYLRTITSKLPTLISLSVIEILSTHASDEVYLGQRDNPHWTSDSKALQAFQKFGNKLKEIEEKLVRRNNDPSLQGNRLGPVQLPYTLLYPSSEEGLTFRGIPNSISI
The data set is described as follows: Lipoxygenase (15-LOX) inhibition assay, linoleic acid substrate, absorbance 234 nm. Type of data set: biochemical. Conditions: for inhibition at 100 µM: final concentration of 100 μM; for IC50: mean of three experiments, read-out: 15-LOX IC50 ± SEM. On the procedure:
The lipoxygenase activity was determined with the some modifications to the reported method. The compounds were first screened at 0.1 mM. Assay buffer was made containing 100 mM KH2PO4 and the pH was adjusted at 8.0. Initially, 145 µL of assay buffer was added in each well of a 96-well plate, followed by the addition of 10 µL of 15-LOX enzyme (42.5 units/well). Then, 20 µL of test compound was added in each well and incubated for 10 min at 25 °C. Absorbance was measured at 234 nm by multimode micro-plate reader, FLUOstar Omega, Germany as a pre-read value. Further reaction was carried out by adding of 25 µL of substrate linoleic acid and incubation for 10 min at 25 °C. After incubation, absorbance was calculated again at 234 nm as after read. […] The IC50 values for all experiments were determined using a nonlinear curve fitting tool and all experiments were carried out in triplicate format in GraphPad PRISM 5.0 (GraphPad, San Diego, CA, USA).

[2] abbreviates: mean of three experiments, read-out: b-CA II IC50 ± SEM.

SMILES strings stand for the structures. “Also recorded” adds a separate entry of the source. Read-outs that look alike come from different tables or passages of the source. Some results are limits rather than exact numbers.

Sequence of bovine carbonic anhydrase II (b-CA II) (P00921 whole entry): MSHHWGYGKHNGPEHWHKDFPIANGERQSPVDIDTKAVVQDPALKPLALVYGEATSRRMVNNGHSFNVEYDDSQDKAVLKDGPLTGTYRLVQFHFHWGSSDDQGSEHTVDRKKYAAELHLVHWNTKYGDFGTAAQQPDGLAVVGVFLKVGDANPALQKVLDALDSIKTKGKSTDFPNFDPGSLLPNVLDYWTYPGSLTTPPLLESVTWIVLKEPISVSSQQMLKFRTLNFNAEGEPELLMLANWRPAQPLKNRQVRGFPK

By IC50 is commonly meant the concentration that inhibits the measured activity by half. What is called inhibition is the relative decrease from the control value, in per cent. Usually melting point stands for the temperature of the solid-liquid transition. `C#CCN(C)c1ccc(/C=N/NC(N)=S)cc1` [3b] yielded a melting point of 245 °C. The “selectivity for b-CA II over 15-LOX” value in data set [1] is listed as “selective towards b-CA II; also recorded: selective inhibitors of CA II”. For the same molecule, the IC50 in data set [1] (setting [2]) is 4970 ± 160 nM. The molecule also showed an inhibition at 100 µM against 15-lipoxygenase (15-LOX) of less than 50%.

Turning to `NC(=S)N/N=C/c1cccc(F)c1` [3h], the results for the IC50 (in data set [1]; on 15-lipoxygenase (15-LOX)) were 130 ± 10 nM and 140 ± 10 nM, respectively. Moreover, in data set [1] (vs acetazolamide), the “fold higher potential towards b-CA II compared with standard inhibitor acetazolamide” value is on record as “≈ 7 fold”.

As for `NC(=S)N/N=C/c1ccc(Br)s1` [3f], the melting point was 243 °C. Also, in data set [1] (setting [2]), the half-inhibitory concentration (IC50) is 10200 ± 210 nM. At 15-lipoxygenase (15-LOX), the IC50 amounted to 820 ± 190 nM.

`COc1cc2cc(OC)c(OC)c(/C=N/NC(N)=S)c2cc1OC` [3a] came in with a melting point of 240 °C. Also, in data set [1] (setting [2]), the IC50 worked out at 310 ± 10 nM. The IC50 on 15-lipoxygenase (15-LOX) was 370 ± 20 nM.

For the molecule `COc1ccc(/C=N/NC(N)=S)cc1O` [3e], the IC50 in data set [1] (setting [2]) is 380 ± 20 nM; at 15-lipoxygenase (15-LOX) it was 1340 ± 140 nM.

Take `NC(=S)N/N=C/c1cc([N+](=O)[O-])ccc1Cl` [3d]: the melting point was found to be 248 °C. Besides, the “selectivity for b-CA II over 15-LOX” value in data set [1] is reported as “selective towards b-CA II; also recorded: selective inhibitors of CA II”. Besides, the IC50 in data set [1] (setting [2]) amounted to 280 ± 10 nM. The inhibition at 100 µM against 15-lipoxygenase (15-LOX) was less than 50%.

On to `NC(=S)N/N=C/c1c(F)cccc1Cl` [3g], for which, in data set [1], the “selectivity for b-CA II over 15-LOX” value is recorded as “selective towards b-CA II; also recorded: selective inhibitors of CA II”. For the same molecule, the IC50 in data set [1] (setting [2]) is 840 ± 50 nM. Moreover, the inhibition at 100 µM against 15-lipoxygenase (15-LOX) was less than 50%.

With `NC(=S)N/N=C/c1ccccc1F` [3c], the IC50 in data set [1] (setting [2]) came out at 2020 ± 120 nM; on 15-lipoxygenase (15-LOX), 160 ± 10 nM.
